From ChEMBL document CHEMBL1154288, “The discovery and unique pharmacological profile of RO4938581 and RO4882224 as potent and selective GABAA alpha5 inverse agonists for the treatment of cognitive dysfunction” (Bioorg Med Chem Lett, 2009)
Activity calls are given as the source filed them. The calls are words filed in the database; no cut-off is given here.

Key:
[1] = biological target: T1, GABA-A receptor; alpha-5/beta-3/gamma-2 (Homo sapiens, UniProt P18507+P28472+P31644); experiment: Displacement of [3H]Flumazenil from cloned human GABA alpha-5-beta-3-gamma-2 receptor expressed in HEK293 cells; assay type: cell-based
T1 sequence (P18507 whole entry): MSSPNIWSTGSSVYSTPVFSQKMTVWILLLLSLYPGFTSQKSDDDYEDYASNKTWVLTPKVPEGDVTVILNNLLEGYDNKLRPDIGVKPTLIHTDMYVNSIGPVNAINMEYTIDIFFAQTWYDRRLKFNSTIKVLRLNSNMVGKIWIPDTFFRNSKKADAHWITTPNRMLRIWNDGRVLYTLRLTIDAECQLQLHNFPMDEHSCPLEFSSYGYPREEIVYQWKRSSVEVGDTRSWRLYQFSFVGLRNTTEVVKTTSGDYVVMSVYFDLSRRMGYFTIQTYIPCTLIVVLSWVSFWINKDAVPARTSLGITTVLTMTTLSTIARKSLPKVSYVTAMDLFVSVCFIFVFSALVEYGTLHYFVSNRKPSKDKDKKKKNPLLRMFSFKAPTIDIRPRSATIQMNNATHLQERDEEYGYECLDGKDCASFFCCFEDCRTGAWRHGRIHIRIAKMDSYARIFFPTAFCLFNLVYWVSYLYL
T1 sequence (P28472 whole entry): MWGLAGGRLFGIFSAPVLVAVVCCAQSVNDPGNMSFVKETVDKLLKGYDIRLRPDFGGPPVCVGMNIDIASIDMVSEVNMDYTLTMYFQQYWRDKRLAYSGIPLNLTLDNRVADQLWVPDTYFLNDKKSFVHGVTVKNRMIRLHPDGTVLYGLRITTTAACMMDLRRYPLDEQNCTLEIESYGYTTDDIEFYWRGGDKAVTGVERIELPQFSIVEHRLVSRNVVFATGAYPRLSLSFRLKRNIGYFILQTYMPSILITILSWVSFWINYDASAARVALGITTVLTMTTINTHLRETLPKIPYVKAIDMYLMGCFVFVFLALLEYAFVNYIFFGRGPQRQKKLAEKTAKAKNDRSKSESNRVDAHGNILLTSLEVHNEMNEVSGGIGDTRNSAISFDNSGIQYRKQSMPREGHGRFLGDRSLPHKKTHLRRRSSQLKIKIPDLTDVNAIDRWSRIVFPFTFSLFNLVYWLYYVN
T1 sequence (P31644 whole entry): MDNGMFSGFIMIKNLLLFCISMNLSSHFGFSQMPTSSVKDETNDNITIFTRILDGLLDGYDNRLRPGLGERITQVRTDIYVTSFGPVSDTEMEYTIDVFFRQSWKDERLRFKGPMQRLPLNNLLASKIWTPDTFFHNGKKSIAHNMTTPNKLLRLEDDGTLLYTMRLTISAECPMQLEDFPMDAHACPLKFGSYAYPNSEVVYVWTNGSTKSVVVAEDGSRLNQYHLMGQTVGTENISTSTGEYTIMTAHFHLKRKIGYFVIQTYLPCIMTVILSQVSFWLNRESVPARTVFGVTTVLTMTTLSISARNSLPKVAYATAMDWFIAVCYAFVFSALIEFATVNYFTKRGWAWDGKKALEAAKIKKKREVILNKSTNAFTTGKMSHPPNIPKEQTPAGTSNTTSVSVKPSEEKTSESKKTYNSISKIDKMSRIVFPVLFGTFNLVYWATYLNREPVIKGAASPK

[2] = biological target: GABA A receptor alpha-5/beta-3/gamma-2 (Rattus norvegicus) (UniProt P18508+P19969+P63079); experiment: Inverse agonist activity at rat GABA alpha-5-beta-3-gamma-2 receptor expressed in HEK293 cells by electrophysiology assay relative to GABA; assay type: functional, cell-based
[3] = biological target: T2, GABA-A receptor; alpha-1/beta-3/gamma-2 (Homo sapiens, UniProt P14867+P18507+P28472); experiment: Displacement of [3H]Flumazenil from cloned human GABA alpha-1-beta-3-gamma-2 receptor expressed in HEK293 cells; assay type: cell-based
T2 sequence (P14867 whole entry): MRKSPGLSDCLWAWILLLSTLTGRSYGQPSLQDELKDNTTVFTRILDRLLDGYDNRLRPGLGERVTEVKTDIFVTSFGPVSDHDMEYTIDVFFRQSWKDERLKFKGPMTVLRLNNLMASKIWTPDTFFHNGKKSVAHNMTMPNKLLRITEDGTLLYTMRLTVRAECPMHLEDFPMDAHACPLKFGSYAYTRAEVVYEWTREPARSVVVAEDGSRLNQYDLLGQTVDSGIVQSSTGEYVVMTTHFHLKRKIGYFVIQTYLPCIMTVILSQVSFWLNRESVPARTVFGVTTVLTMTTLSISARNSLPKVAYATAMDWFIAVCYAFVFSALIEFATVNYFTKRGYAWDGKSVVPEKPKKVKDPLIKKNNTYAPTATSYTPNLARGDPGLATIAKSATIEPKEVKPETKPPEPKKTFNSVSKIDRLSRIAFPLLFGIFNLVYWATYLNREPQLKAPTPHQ
T2 sequence (P18507 whole entry): T1 sequence (P18507 whole entry)
T2 sequence (P28472 whole entry): T1 sequence (P28472 whole entry)

[4] = Oral bioavailability in rat; assay type: ADME, organism-based; settings: in vivo
Rattus norvegicus [5] = experiment: Behavioral effect in Lister hooded rat assessed as reversal of scopolamine-induced working memory impairment at 0.3 to 1 mg/kg, po by delayed match to position task method; assay type: functional, organism-based
Rattus norvegicus [6] = experiment: Behavioral effect in Lister hooded rat assessed as inhibition of diazepam-induced spartial learning impairment at 1 to 10 mg/kg, po by delayed match to position task method; assay type: functional, organism-based
Cynomolgus monkey = experiment: Behavioral effect in cynomolgus monkey assessed as improved executive function at 3 to10 mg/kg, po by object retrieval task method; assay type: functional, organism-based; settings: Macaca fascicularis
Rattus norvegicus [7] = species: Rattus norvegicus; experiment: Anxiogenic activity in Lister hooded rat by elevated plus maze test; assay type: functional, organism-based
Mus musculus = species: Mus musculus; experiment: Anticonvulsive activity in mouse audiogenic seizure model; assay type: functional, organism-based
Rattus norvegicus [8] = experiment: Behavioral effect in Lister hooded rat assessed as reversal of scopolamine-induced working memory impairment at 0.1 mg/kg, po after 24 seconds by delayed match to position task method; assay type: functional, organism-based; parameters: dose 0.1 mg/kg
Rattus norvegicus [9] = species: Rattus norvegicus; experiment: Anxiogenic activity in Lister hooded rat by social approach avoidance test; assay type: functional, organism-based
HEK293 = experiment: Selectivity ratio of Ki for cloned human GABA alpha-1-beta-3-gamma-2 receptor expressed in HEK293 cells to Ki for cloned human GABA alpha-5-beta-3-gamma-2 receptor expressed in HEK293 cells; assay type: cell-based
[10] = biological target: GABA-A receptor; alpha-5/beta-3/gamma-2 (Homo sapiens) (UniProt P18507+P28472+P31644); experiment: Inverse agonist activity at human GABA alpha-5-beta-3-gamma-2 receptor expressed in Xenopus laevis oocyts by electrophysiology assay relative to GABA; assay type: functional
Rattus norvegicus [11] = experiment: Behavioral effect in Lister hooded rat assessed as reversal of scopolamine-induced working memory impairment at 1 mg/kg, po by delayed match to position task method; assay type: functional, organism-based; parameters: dose 1 mg/kg
Rattus norvegicus [12] = experiment: Behavioral effect in Lister hooded rat assessed as reversal of scopolamine-induced working memory impairment at 1 mg/kg, po after 16 seconds by delayed match to position task method; assay type: functional, organism-based; parameters: dose 1 mg/kg
Rattus norvegicus [13] = experiment: Behavioral effect in Lister hooded rat assessed as reversal of scopolamine-induced working memory impairment at 1 mg/kg, po after 24 seconds by delayed match to position task method; assay type: functional, organism-based; parameters: dose 1 mg/kg

Compound	Ki [1]	Efficacy [2]	Ki [3]	bioavailability [4]	Activity (Rattus norvegicus [5])	Activity (Rattus norvegicus [6])	Activity (Cynomolgus monkey)	Activity (Rattus norvegicus [7])	Activity (Mus musculus)	Activity (Rattus norvegicus [8])	Activity (Rattus norvegicus [9])	Ratio Ki (HEK293)	Activity [10]	Activity (Rattus norvegicus [11])	Activity (Rattus norvegicus [12])	Activity (Rattus norvegicus [13])
FC(F)c1ncn2c1Cn1ncnc1-c1cc(Br)ccc1-2	4.6 nM	-35%	174 nM	89%	Active	Active	Active	inactive	inactive	Active	inactive					
Clc1ccc2c(c1)-c1ncnn1Cc1c(Cl)ncn1-2	2 nM	-40	15 nM	81%								7	Active	inactive	Active	Active
Clc1ncn2c1Cn1ncnc1-c1cc(Br)ccc1-2	1.4 nM	-48%	33 nM	56%								24				
Cc1ncn2c1Cn1ncnc1-c1cc(Cl)ccc1-2	3 nM	-41%	18 nM	52%								6				
